# Measured values published in patent US20260015358A1, “BICYCLIC DERIVATIVES, COMPOSITIONS AND USES THEREOF” (Danatlas Pharmaceuticals Co., Ltd., priority 2023, published 2026).
# Key:
# [1] = target: T1, WRN [UniPro: Q14191 (WRN_HUMAN), N500-C946] (Homo sapiens (Human), UniProt Q14191); assay: WRN ATPase assay (ADP-Glo); format: biochemical; conditions: WRN enzymatic activity assay
# [2] = target: T1, WRN [UniPro: Q14191 (WRN_HUMAN), N500-C946]; assay: WRN unwinding assay (FORKF DNA, fluorescence); format: biochemical; conditions: Table 14
# T1 sequence (Q14191 500-946): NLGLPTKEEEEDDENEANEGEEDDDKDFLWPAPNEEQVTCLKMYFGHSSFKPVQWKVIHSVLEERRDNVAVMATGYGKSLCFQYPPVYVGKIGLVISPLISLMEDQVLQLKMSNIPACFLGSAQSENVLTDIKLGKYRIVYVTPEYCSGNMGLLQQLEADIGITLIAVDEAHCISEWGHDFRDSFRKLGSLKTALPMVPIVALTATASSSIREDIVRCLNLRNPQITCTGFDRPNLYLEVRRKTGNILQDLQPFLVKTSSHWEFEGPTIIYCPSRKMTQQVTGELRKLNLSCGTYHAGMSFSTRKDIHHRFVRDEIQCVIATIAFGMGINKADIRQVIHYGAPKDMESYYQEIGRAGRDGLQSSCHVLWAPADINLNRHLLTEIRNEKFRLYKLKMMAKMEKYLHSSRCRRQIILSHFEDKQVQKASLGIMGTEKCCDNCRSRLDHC
IC50 [1] [nM],IC50 [2] [nM],SMILES
< 100,< 100,"CCc1c(N2CCN(C(=O)CNC(=O)c3cccc4nonc34)CC2)c(=O)n2nc(C3=CCOCC3)nc2n1CC(=O)Nc1ccc(C(F)(F)F)cc1Cl [Example 383, N-(2-(4-(4-(2-((2-Chloro-4-(trifluoromethyl)phenyl)amino)-2-oxoethyl)-2-(3,6-dihydro-2H-pyran-4-yl)-5-ethyl-7-oxo-4,7-dihydro-[1,2,4]triazolo[1,5-a]pyrimidin-6-yl)piperazin-1-yl)-2-oxoethyl)benzo[c][1,2,5]oxadiazole-4-carboxamide]"
< 100,< 100,"CCc1c(N2CCN(C(=O)CNC(=O)c3cnon3)CC2)c(=O)n2nc(C3=CCOCC3)nc2n1CC(=O)Nc1ccc(C(F)(F)F)cc1Cl [Example 384, N-(2-(4-(4-(2-((2-Chloro-4-(trifluoromethyl)phenyl)amino)-2-oxoethyl)-2-(3,6-dihydro-2H-pyran-4-yl)-5-ethyl-7-oxo-4,7-dihydro-[1,2,4]triazolo[1,5-a]pyrimidin-6-yl)piperazin-1-yl)-2-oxoethyl)-1,2,5-oxadiazole-3-carboxamide]"
< 100,< 100,"CCc1c(N2CCN(C(=O)CNC(=O)c3ccco3)CC2)c(=O)n2nc(C3=CCOCC3)nc2n1CC(=O)Nc1ccc(C(F)(F)F)cc1Cl [Example 385, N-(2-(4-(4-(2-((2-Chloro-4-(trifluoromethyl)phenyl)amino)-2-oxoethyl)-2-(3,6-dihydro-2H-pyran-4-yl)-5-ethyl-7-oxo-4,7-dihydro-[1,2,4]triazolo[1,5-a]pyrimidin-6-yl)piperazin-1-yl)-2-oxoethyl)furan-2-carboxamide]"
< 100,< 100,"CCc1c(N2CCN(C(=O)CNC(=O)c3cccs3)CC2)c(=O)n2nc(C3=CCOCC3)nc2n1CC(=O)Nc1ccc(C(F)(F)F)cc1Cl [Example 386, N-(2-(4-(4-(2-((2-Chloro-4-(trifluoromethyl)phenyl)amino)-2-oxoethyl)-2-(3,6-dihydro-2H-pyran-4-yl)-5-ethyl-7-oxo-4,7-dihydro-[1,2,4]triazolo[1,5-a]pyrimidin-6-yl)piperazin-1-yl)-2-oxoethyl)thiophene-2-carboxamide]"
